Results as given in patent US8410116B2, “Bis(styryl)pyrimidine or bis(styryl)benzene compounds, pharmaceutically acceptable salts thereof, preparation method thereof, and pharmaceutical composition for prevention or treatment of diseases featuring amyloids comprising the same as an active ingredient” (Korea Institute of Science and Technology, priority 2009, dated 2013).

How the values were obtained:
beta amyloid (1-42) = beta amyloid (1-42) (Homo sapiens, UniProt P05067); experiment: Inhibitory activity against beta amyloid fibril formation (ThT fluorescence); assay type: biochemical; settings: for remaining activity at 10 µM: compound 10 μM, beta amyloid (1-42) 25 μM, 1 hr room temperature, beta amyloid alone (control) = 100
Sequence of beta amyloid (1-42) (P05067 672-713 limits assumed): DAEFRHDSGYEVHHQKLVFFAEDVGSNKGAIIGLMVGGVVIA
Experimental: The compounds of the present invention were assayed for inhibitory activity against the formation of beta amyloid fibrils as a function of ThT fluorescence intensity as follows. Beta amyloid (1-42) and each of the compounds of Examples 1 to 27 were dissolved in DMSO and diluted with PBS (phosphate-buffered saline, pH 7.4). The final concentrations of beta amyloid (1-42) (control) and each of the compounds of Examples 1 to 27 were set at 25 μM and 10 μM, respectively. The dilutions were incubated at room temperature for 1 hr before a solution of thioflavin T (ThT, 5 μM, pH 8.5) in glycin-NaOH buffer was added thereto. Fluorescence was measured at 450 nm for excitation (slit 10 nm) and […] for emission (slit 10 nm) on 96-well microplates using a multilabel fluorescence counter.

HT-22 cells = experiment: Cytotoxicity in HT-22 cell (MTT); assay type: cell-based, murine; settings: compound 25 μM, 18 hrs
Experimental: The following experiment was performed with HT-22 cells in order to examine the cytotoxicity of the compounds of the Examples in accordance with the present invention.
(§1) The murine hippocampal neuronal cell line HT-22 was incubated at 37° C. in DMEM (Dulbecco's Modified Eagle's Medium) supplemented with 10% FBS (fetal bovine serum) and 1% penicillin/streptomycin in a 5% CO2 incubator. Before testing, HT-22 cells were seeded at a density of 5×10^3 cells/well onto 96-well plates containing serum-free DMEM and incubated for 1 hr. Afterwards, each of the compounds of Examples 1 to 27 was added at a concentration of 25 μM to each well before incubation for 18 hrs. 5 mg/ml MTT (3-(4,5-dimethyl-2-thiozolyl)-2,5-diphenyl-2H-tetrazolium bromide) solution was added in an amount of 15 μl per well and incubated for 4 hrs. A solubilization solution (10% SDS, 50% dimethylformamide, pH 4.7) was added in an amount of 100 μl to each well, followed by incubation for 18 hrs. Absorbance at 570 nm/630 nm was read on a microplate reader.

[1] = system: HT-22 cells incubated with beta amyloid (Aβ25-35); experiment: Alleviating effect on beta amyloid toxicity in HT-22 cells (MTT); assay type: cell-based, murine; settings: Mus musculus, compound pre-incubated 1 hr, then 25 μM beta amyloid (Aβ25-35) for 18 hrs, Aβ25-35 line = toxin alone, read-out: Cell Survival (%)
Experimental: as §1
The following experiment was performed in order to examine the ability of the compounds of the Examples in accordance with the present invention to alleviate beta amyloid toxicity. HT-22 cells were cultured and incubated with the compounds of Examples 1 to 27 for 1 hr in the same manner as in Example 2. Cell necrosis was induced by beta amyloid toxicity. For this, the cells were incubated with 25 μM of beta amyloid (Aβ25-35) for 18 hrs. Subsequently, a 5 mg/ml MTT solution was added in an amount of 15 μl to each well, followed by incubation for 4 hrs. Then, the cells were again incubated for 18 hrs with 100 μl/well of the solubilization solution. Absorbance at 570 nm/630 nm was read on a microplate reader.

[2] = system: beta amyloid (1-42) injected mice; experiment: Y-maze task, acute Alzheimer's disease model; assay type: in vivo; settings: mice i.c.v. injected with beta amyloid (1-42), compounds administered for 2 days, test on Day 2
Experimental: (§2) Mice 4-5 weeks old, each weighing 20˜25 g, were divided into groups of six. Intracerebroventricular injection was performed with a 50 μl Hamilton microsyringe fitted with a disposable 26-gauge needle as described by Laursen and Belknap (Laursen & Belknap, J. Pharmacol. Methods. 1986, 16, 355). It was inserted 2.4 mm deep into the bregma. All samples were administered to groups of 10 via oral routes or food pellets. After the intracerebroventricular injection, the compounds of the present invention were administered for 2 days to the mice which were then subjected to the Y-maze test on Day 2, the cognition test on Days 2 and 3, the passive avoidance test on Days 3 and 4, and the water maze test on Days 3 to 7. All data were averages of 6 measurements (mice).
(§3) Short-term memory was assessed by spontaneous alternation behavior in the Y-maze task. Spontaneous alternation behavior is considered to reflect spatial working memory, which is a form of short-term memory. A mouse was placed in one arm of a Y-maze and allowed to freely pass the three arms for 8 min. Spontaneous alternation behavior was defined as successive entries into the three arms. Percentage spontaneous alternation was calculated as the ratio of actual to possible alternations […], multiplied by 100.

[3] = system: beta amyloid (1-42) injected mice; experiment: Cognitive performance task, acute Alzheimer's disease model; assay type: in vivo; design: Cognition % of control: concentration or dose not given beside the values; settings: for Cognition Preference (investigation time for new matter/total investigation time): mice i.c.v. injected with beta amyloid (1-42), test on Days 2 and 3; for Cognition % of control: preference relative to control mice
Experimental: as §2
(§4) For the cognitive performance task, two identical substances were respectively placed 5 cm apart from two corners and the time it took for a mouse to investigate the given and new substances was measured. Investigation was defined as the condition in which a mouse sniffed with the head directing toward the substance within a diameter of 2 cm or touched the substance.

[4] = system: beta amyloid (1-42) injected mice; experiment: Passive avoidance test, acute Alzheimer's disease model; assay type: in vivo; design: Passive Avoidance % of control: concentration or dose not given beside the values; settings: for Passive Avoidance % of control: latency relative to control mice; for Passive Avoidance Latency: mice i.c.v. injected with beta amyloid (1-42), test on Days 3 and 4, 24 hours after training
Experimental: as §2
(§5) A passive avoidance test was performed as described in the literature (Song et al. J. Neurochem., 1998, 71, 875). Used was a passive avoidance box which was divided into two compartments: a lighted one and a dark one, separated by an automatic guillotine door. For training, mice were placed in the lighted compartment and electrically shocked with 0.25 mA for 1 sec whenever they entered the darkened compartment. 24 hours after training, the mice were placed in the lighted compartment and measured for latency time before entering the darkened compartment.

[5] = system: beta amyloid (1-42) injected mice; experiment: Water maze test, acute Alzheimer's disease model; assay type: in vivo; settings: mice injected with beta amyloid (1-42), Days 3 to 7
Experimental: as §2
In a water maze test, a mouse, when released from a randomly selected quadrant on each trial, was allowed to swim around the pool in search of an exit while the time taken to reach the platform (latency) was recorded.

[6] = system: beta amyloid (1-42) injected mice; experiment: Behavior tests with acute AD model taken together (Y-maze, cognitive performance, passive avoidance); assay type: in vivo; settings: data of Table 6, with statistical significance
Experimental: as §2, §3, §4, §5

Compound | remaining activity at 10 µM (beta amyloid (1-42)) [%] | Cell Survival (%) (HT-22 cells) | viability at 25 µM [1] [%] | Y-Maze Spontaneous Alternation (%) [2] [%] | Recovery of preference for the new matter ([3]; compared to beta amyloid (1-42) injected mice, % of control) | Cognition Preference (investigation time for new matter/total investigation time) [3] | Cognition % of control [3] [%] | Passive Avoidance % of control [4] [%] | Passive Avoidance Latency [4] [s] | Spatial learning ability in water maze (latency over sessions), FIG. 1 [5] | Memory and learning of beta amyloid (1-42) injected mice (in words) [6] | Reduction of preference for the new matter compared to the control ([3]; beta amyloid (1-42) injected mice) | Passive Avoidance % of control ([4]; listed as beta amyloid (1-42)) | Inhibitory activity against fibril formation (in words) (beta amyloid (1-42); Table 3)
COc1cc(/C=C/c2cc(/C=C/c3ccc(O)c(OC)c3)ncn2)ccc1O [Ex. 6, (E,E)-4,6-bis(4′-hydroxy-3′-methoxystyryl)pyrimidine] | 20.7 ± 5.4 | 215.6 ± 3.5 | 103 ± 13 | 67.9 | about 11% | 0.61 ± 0.03 | 95 | 78.1 | 139.2 | recover spatial learning ability | increased memory |  |  | 
Aβ1-42: beta amyloid peptide of 42 amino acids, injected intracerebroventricularly into mice to induce acute Alzheimer's disease [reference compound] |  |  |  | 61.6 |  | 0.54 ± 0.02 | 84 | 50.4 | 89.9 | deficient in spatial memory |  | about 16% | about 50% | 
CN(C)c1cc(/C=C/c2cc(/C=C/c3ccc(O)c(N(C)C)c3)ncn2)ccc1O [Ex. 2, (E,E)-4,6-Bis[4′-hydroxy-3′-(N,N-dimethylamino)styryl]pyrimidine] | 16.5 ± 2.6 | 146.2 ± 26.6 | 85.3 ± 0.1 | 71.3 |  | 0.53 ± 0.05 | 82 | 66.1 | 117.8 | recover spatial learning ability | increased memory |  |  | 
CN(C)c1ccc(/C=C/c2cc(/C=C/c3ccc(N(C)C)c(O)c3)ncn2)cc1O [Ex. 7, (E,E)-4,6-bis[3′-hydroxy-4′-(N,N-dimethylamino)styryl]pyrimidine] | 6.3 ± 1.8 | 132.8 ± 41.1 | 76.6 ± 12.1 | 67.0 |  | 0.57 ± 0.02 | 89 | 68.7 | 122.5 | recover spatial learning ability | increased memory |  |  | remarkable inhibitory activity
